Residues, ends and D or L forms follow the SMILES beside them.
Legend:
[1] = test system: C72 murine anti-DNA antibody; test: Direct binding ELISA of C72 to laminin peptides; set-up: species or system mouse; conditions: direct binding ELISA test after one (1) hour
Protocol: (§1) The C72 murine anti-DNA antibody has been derived from (NZB×NZW)F1 lupus mice by the hybridoma technique as described in Eilat D. et al J. Immunol. […] The monoclonal anti-DNA antibodies DIL6 and B3 were derived from lupus patients by hybridoma technique as described in Ehrenstein M. R. et al J. Clin. Invest. (1994) 93 1787-1799 and Ehrenstein M. R. et al Kidney Inter. (1995) 48 705-711.
(§2) Wells were coated with 10 μg/ml of the peptides, blocked with 1% BSA (bovine serum albumin) in PBS (pH 7,4), reacted with appropriately diluted serum or urine samples or monoclonal antibodies, incubated with anti-human or anti-mouse immunoglobulin enzyme conjugated to alkaline phosphatase and detected by addition of substrate (Sigma 100 Phosphatase Substrate Tablets) and color development using an Organon Teknika Microwell System spectrometer at wavelength of 405 nm.
The interaction of the C72 murine anti-DNA antibody with laminin peptides was analyzed by ELISA as described above. The C72 conditioned medium was diluted in PBS in various dilutions.
(§3) The peptides of the present invention were tested for their ability to bind directly with C72 murine anti-DNA antibodies and B3 human anti-DNA antibodies according to the method described hereinabove.

[2] = molecular target: C72 anti-DNA antibody; test: Competitive inhibition of C72 binding to R38 (5100); set-up: species or system mouse; conditions: concentration of competitive inhibitor, ELISA
Description: A competitive inhibition study compared how each of the peptides competes with R38 (5100) for binding to the C72 anti-DNA antibody. Conducted according to the methods described hereinabove, the results of the study are disclosed in Table 4 below and are further elucidated by reference to FIG. 10.

[3] = test system: B3 human anti-DNA antibody; test: Direct binding ELISA of B3 to laminin peptides; conditions: direct binding ELISA test after two (2) hours
Protocol: as §1, §2
The human monoclonal anti-DNA antibodies DIL 6 and B3 were derived from lupus patients by the hybridoma technique. […] In FIGS. 3 and 4, the peptides are referred to as denoted above or as follows; AS30 is R27, AS19 is R35 AS35 is R26, AS17 is R28 and AS6 is R18.
as §3

C72 Binding [1]: 0.03 O.D. | 50% Inhibition of C72 binding to mouse R38 (5100) [2]: 85 µg/mL | B3 Binding [3]: 0.03 O.D.
SMILES: CC[C@H](C)[C@H](NC(=O)[C@H](CC(N)=O)NC(=O)[C@@H](NC(=O)[C@H](CC(=O)O)NC(=O)[C@H](CO)NC(=O)[C@H](CCC(N)=O)NC(=O)[C@@H](NC(=O)[C@H](CCCCN)NC(=O)[C@H](Cc1ccc(O)cc1)NC(=O)CNC(=O)[C@H](CCC(=O)O)NC(=O)[C@@H](N)CCCCN)C(C)C)C(C)C)C(=O)N[C@H](C(=O)N[C@@H](CC(C)C)C(=O)N[C@@H](CCC(=O)O)C(=O)N[C@@H](Cc1ccccc1)C(=O)N[C@@H](CCCNC(=N)N)C(=O)N[C@H](C(=O)N[C@@H](CO)C(=O)N[C@@H](CO)C(=O)N[C@@H](CCC(N)=O)C(=O)O)[C@@H](C)O)[C@@H](C)O [Peptide 5300] (H-KEGYKVQSDVNITLEFRTSSQ-OH; N-terminus and C-terminus assumed)

From patent US20020054872A1, “Peptides for the treatment of systemic lupus erythematosus and methods of treating systemic lupus erythematosus” (priority 1997, published 2002)
